Test results as given in patent US9849154B2, “Synergistic combination of alanine-glutamine, hyaluronic acid and oat extract and the use thereof in a composition intended for healing wounds and repairing skin lesions” (PIERRE FABRE DERMO-COSMETIQUE, priority 2013, dated 2017).
Residues, ends and D or L forms follow the SMILES beside them.

Tested on: HaCaT human keratinocyte line
Assay: Oris Cell Migration Assay: migration of keratinocytes
Assay type: cell-based
Details: DMEM 0% FCS; for % Migration (control 0% FCS = 100) / Average ± SD (fluorescence intensity, FI): 24 h
Excerpt: The objective of this test was to evaluate the effect of hyaluronic acid, oat seedling extract, L-alanyl-L-glutamine and combinations thereof on the migration of keratinocytes using the Oris Cell Migration Assay kit (Platypus Technologies).
The spontaneously immortalised HaCaT human keratinocyte line, frequently cited as reference model in the literature was used.
The protocol used for the study of cell migration is based on the use of a 96 well kit, the Oris Cell Migration Assay (Platypus technologies—TEBU), enabling the miniaturisation and the quantification of this cellular process.
The principle of this test consists in studying cell migration towards the centre of the wells of the 96 well plate. It consists in placing a stopper in the wells, in order to create a 2 mm diameter detection zone. Then removing the stoppers once cells have properly adhered to the surface around them, and thus to enable cells to migrate towards the detection zone. The plates without stoppers and with the active ingredients are incubated at 37° C. for 24 hours in DMEM (Dulbecco's Modified Eagle Medium) 0% FCS (foetal calf serum). The quantity of cells situated in the zone where the stopper was is analysed in order to evaluate the migration of the cells. A mask makes it possible to visualise and to count uniquely the cells situated in this zone. For each condition, the average is determined on 6 to 8 wells.
The cells were incubated in FCS-free medium.
• EGF: 33 ng/ml, • oat seedling extract: 10 or 30 μg/ml,
Filtering. Concentration by drying until a dry extract is obtained. • sodium hyaluronate (molecular weight 250-450 kDa): 20 or 60 μg/ml, • L-alanyl-L-glutamine: 40 or 90 μg/ml. Analysis of the Results
The Results are Expressed: • In fluorescence intensity (FI), proportional to the quantity of cells having migrated. • In percentage activity compared to the control 0% FCS.
[formula] Statistical Analyses
Statistical analyses by the Dunnett test were carried out on the crude migration values. This test then gives “p value” values characterising the significance of the results obtained for different conditions. The degree of significance was fixed at
The results at different concentrations of the effect of oat seedling extract, hyaluronic acid and L-alanyl-L-glutamine, alone or in combination on the migration of keratinocytes are indexed in tables 1 and 2 then represented in the single FIGURE. The fluorescence intensity values represented on this curve correspond to an average of 6 to 8 measurements carried out during an experiment representative of 3 independent manipulations.

Compound	effect on the migration of keratinocytes (in words) (L-alanyl-L-glutamine alone, 40 or 90 μg/ml)	% Migration (control 0% FCS = 100) (Table 1, 40 μg/ml)	Average ± SD (fluorescence intensity, FI) (Table 1, 40 μg/ml)	% Migration (control 0% FCS = 100) (Table 2, 90 μg/ml)	Average ± SD (fluorescence intensity, FI) (Table 2, 90 μg/ml)	% Migration (control 0% FCS = 100) (Table 1, EGF 33 ng/ml)	Average ± SD (fluorescence intensity, FI) (Table 1, EGF 33 ng/ml)	Average ± SD (fluorescence intensity, FI) (Table 2, EGF 33 ng/ml)	% Migration (control 0% FCS = 100) (Table 2, EGF 33 ng/ml, * p < 0.05 versus control)	effect on the migration of keratinocytes (in words) (positive control, EGF 33 ng/ml)
C[C@H](N)C(=O)N[C@@H](CCC(N)=O)C(=O)O [ALANYL GLUTAMINE, L-alanyl-L-glutamine] (H-Ala-Gln-OH)	induces the migration of keratinocytes in a concentration-dependent manner	200%	2471 ± 788	194%	2586 ± 1092					
EGF: EGF, positive control of the migration experiments, 33 ng/ml						216%	2569±	3553 ± 1556	301 * %	induces the migration of keratinocytes
